Data taken from patent publication US20170107229A1, “SUBSTITUTED TETRAHYDROPYRIDOTHIENOPYRIMIDINES” (BAYER PHARMA AKTIENGESELLSCHAFT, priority 2014, published 2017).

Biological target: T1, human full-length MKNK1 (Homo sapiens, UniProt Q9BUB5, T385D)
T1 construct: GST (N); purchased Carna Biosciences 02-145; host or cells: insect cells (baculovirus expression system)
Assay: MKNK1 kinase high ATP assay (TR-FRET)
Type: biochemical
Settings: high ATP (2 mM final), 15 min preincubation with enzyme, GST-MKNK1 (T344D)
Method: MKNK1-inhibitory activity at high ATP of compounds of the present invention after their preincubation with MKNK1 was quantified employing the TR-FRET-based MKNK1 high ATP assay as described in the following paragraphs.
A recombinant fusion protein of Glutathione-S-Transferase (GST, N-terminally) and human full-length MKNK1 (amino acids 1-424 and T344D of accession number BAA 19885.1), expressed in insect cells using baculovirus expression system and purified via glutathione sepharose affinity chromatography, was purchased from Carna Biosciences (product no 02-145) and used as enzyme. As substrate for the kinase reaction the biotinylated peptide biotin-Ahx-IKKRKLTRRKSLKG (C-terminus in amide form) was used, which can be purchased e.g. from the company Biosyntan (Berlin-Buch, Germany).
For the assay 50 nL of a 100fold concentrated solution of the test compound in DMSO was pipetted into a black low volume 384well microtiter plate (Greiner Bio-One, Frickenhausen, Germany), 2 μL of a solution of MKNK1 in aqueous assay buffer [50 mM HEPES pH 7.5, 5 mM MgCl2, 1.0 mM dithiothreitol, 0.005% (v/v) Nonidet-P40 (Sigma)] was added and the mixture was incubated for 15 min at 22° C. to allow pre-binding of the test compounds to the enzyme before the start of the kinase reaction. Then the kinase reaction was started by the addition of 3 μL of a solution of adenosine-tri-phosphate (ATP, 3.3 mM=>final conc. in the 5 μL assay volume is 2 mM) and substrate (0.1 μM=>final conc. in the 5 μL assay volume is 0.06 μM) in assay buffer and the resulting mixture was incubated for a reaction time of 30 min at 22° C. The concentration of MKNK1 was adjusted depending of the activity of the enzyme lot and was chosen appropriate to have the assay in the linear range, typical concentrations were in the range of 0.003 μg/mL. The reaction was stopped by the addition of 5 μL of a solution of TR-FRET detection reagents (5 nM streptavidine-XL665 [Cisbio Bioassays, Codolet, France] and 1 nM anti-ribosomal protein S6 (pSer236)-antibody from Invitrogen [#44921G] and 1 nM LANCE EU-W1024 labeled ProteinG [Perkin-Elmer, product no. AD0071]) in an aqueous EDTA-solution (100 mM EDTA, 0.1% (w/v) bovine serum albumin in 50 mM HEPES pH 7.5).
The resulting mixture was incubated for 1 h at 22° C. to allow the formation of complex between the phosphorylated biotinylated peptide and the detection reagents. Subsequently the amount of phosphorylated substrate was evaluated by measurement of the resonance energy transfer from the Eu-chelate to the streptavidine-XL. Therefore, the fluorescence emissions at 620 nm and 665 nm after excitation at 350 nm were measured in a TR-FRET reader, e.g. a Rubystar (BMG Labtechnologies, Offenburg, Germany) or a Viewlux (Perkin-Elmer). The ratio of the emissions at 665 nm and at […] was taken as the measure for the amount of phosphorylated substrate. The data were normalised (enzyme reaction without inhibitor=0% inhibition, all other assay components but no enzyme=100% inhibition).

T1 sequence (Q9BUB5 1-424 isoform Q9BUB5-2 T344D): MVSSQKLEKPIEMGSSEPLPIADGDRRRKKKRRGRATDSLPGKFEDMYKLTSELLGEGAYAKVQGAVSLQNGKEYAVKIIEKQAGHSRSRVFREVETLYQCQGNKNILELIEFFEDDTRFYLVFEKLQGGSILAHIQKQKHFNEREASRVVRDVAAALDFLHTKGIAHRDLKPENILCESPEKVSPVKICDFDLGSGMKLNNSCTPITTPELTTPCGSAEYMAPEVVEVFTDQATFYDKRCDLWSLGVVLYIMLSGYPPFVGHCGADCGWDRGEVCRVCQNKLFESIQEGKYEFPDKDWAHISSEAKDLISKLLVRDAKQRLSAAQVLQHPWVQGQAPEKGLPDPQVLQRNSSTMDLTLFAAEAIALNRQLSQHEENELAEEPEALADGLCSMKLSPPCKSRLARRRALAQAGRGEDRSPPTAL

Compound	IC50
CN1CCC(C(=O)N2CCc3c(sc4ncnc(Nc5ccc6[nH]ncc6c5)c34)C2)CC1 [Example 69, [4-(1H-Indazol-5-ylamino)-5,8-dihydropyrido[4′,3′:4,5]thieno[2,3-d]pyrimidin-7(6H)-yl](1-methylpiperidin-4-yl)methanone]	16 nM
COc1cc2[nH]ncc2cc1Nc1ncnc2sc3c(c12)CCN(CC(F)(F)F)C3 [Example 12, N-(6-Methoxy-1H-indazol-5-yl)-7-(2,2,2-trifluoroethyl)-5,6,7,8-tetrahydropyrido[4′3′:4,5]thieno[2,3-d]pyrimidin-4-amine]	99 nM
CN1CCC(C(=O)N2CCc3c(sc4ncnc(Nc5ccc6[nH]c(=O)sc6c5)c34)C2)CC1 [Example 66, 6-({7-[(1-Methylpiperidin-4-yl)carbonyl]-5,6,7,8-tetrahydropyrido[4′,3′:4,5]thieno[2,3-d]pyrimidin-4-yl}amino)-1,3-benzothiazol-2(3H)-one]	90 nM
COc1nc2[nH]ncc2cc1Nc1ncnc2sc3c(c12)CCN(C(=O)C(C)C)C3 [Example 55, 1-{4-[(6-Methoxy-1H-pyrazolo[3,4-b]pyridin-5-yl)amino]-5,8-dihydropyrido[4′,3′:4,5]thieno[2,3-d]pyrimidin-7(6H)-yl}-2-methylpropan-1-one]	42 nM
O=C(N1CCOCC1)N1CCc2c(sc3ncnc(Nc4cc5cn[nH]c5cn4)c23)C1 [Example 24, Morpholin-4-yl[4-(1H-pyrazolo[3,4-c]pyridin-5-ylamino)-5,8-dihydropyrido[4′,3′:4,5]thieno[2,3-d]pyrimidin-7(6H)-yl]methanone]	28 nM
CN(C)C(=O)N1CCc2c(sc3ncnc(Nc4cc5cn[nH]c5cc4Br)c23)C1 [Example 29, 4-[(6-Bromo-1H-indazol-5-yl)amino]-N,N-dimethyl-5,8-dihydropyrido[4′,3′:4,5]thieno[2,3-d]pyrimidine-7(6H)-carboxamide]	37 nM
CN(C)C(=O)N1CCc2c(sc3ncnc(Nc4cnc5[nH]ncc5c4)c23)C1 [Example 13, N,N-Dimethyl-4-(1H-pyrazolo[3,4-b]pyridin-5-ylamino)-5,8-dihydropyrido[4′,3′:4,5]thieno[2,3-d]pyrimidine-7(6H)-carboxamide]	48 nM
COc1cc2[nH]ncc2cc1Nc1ncnc2sc3c(c12)CCN(C(=O)OC(C)(C)C)C3 [Example 4, tert-Butyl 4-[(6-methoxy-1H-indazol-5-yl)amino]-5,8-dihydropyrido[4′,3′:4,5]thieno[2,3-d]pyrimidine-7(6H)-carboxylate]	6 nM
CC(C)C(=O)N1CCc2c(sc3ncnc(Nc4cc5cn[nH]c5cn4)c23)C1 [Example 20, 2-Methyl-1-[4-(1H-pyrazolo[3,4-c]pyridin-5-ylamino)-5,8-dihydropyrido[4′,3′:4,5]thieno[2,3-d]pyrimidin-7(6H)-yl]propan-1-one]	28 nM
CN(C)C(=O)N1CCc2c(sc3ncnc(Nc4cc5cn[nH]c5cn4)c23)C1 [Example 14, N,N-Dimethyl-4-(1H-pyrazolo[3,4-c]pyridin-5-ylamino)-5,8-dihydropyrido[4′,3′:4,5]thieno[2,3-d]pyrimidine-7(6H)-carboxamide]	30 nM
C[C@@H]1CN(C(=O)N2CCc3c(sc4ncnc(Nc5cc6cn[nH]c6cn5)c34)C2)C[C@H](C)O1 [Example 34, [(2R,6S)-2,6-Dimethylmorpholin-4-yl][4-(1H-pyrazolo[3,4-c]pyridin-5-ylamino)-5,8-dihydropyrido[4′,3′:4,5]thieno[2,3-d]pyrimidin-7(6H)-yl]methanone]	70 nM
COc1cc2[nH]ncc2cc1Nc1ncnc2sc3c(c12)CCN(C(=O)N1CCCCC1)C3 [Example 70, {4-[(6-Methoxy-1H-indazol-5-yl)amino]-5,8-dihydropyrido[4′,3′:4,5]thieno[2,3-d]pyrimidin-7(6H)-yl}(piperidin-1-yl)methanone]	19 nM
COc1cc2[nH]ncc2cc1Nc1ncnc2sc3c(c12)CCN(C(=O)N(C)C)C3 [Example 16, 4-[(6-Methoxy-1H-indazol-5-yl)amino]-N,N-dimethyl-5,8-dihydropyrido[4′,3′:4,5]thieno[2,3-d]pyrimidine-7(6H)-carboxamide]	4 nM
C[C@@H]1CN(C(=O)N2CCc3c(sc4ncnc(Nc5ccc6[nH]ncc6c5)c34)C2)C[C@H](C)O1 [Example 33, [(2R,6S)-2,6-Dimethylmorpholin-4-yl][4-(1H-indazol-5-ylamino)-5,8-dihydropyrido[4′,3′:4,5]thieno[2,3-d]pyrimidin-7(6H)-yl]methanone]	21 nM
COc1cc2[nH]ncc2cc1Nc1ncnc2sc3c(c12)CCN(C(=O)N1CCOC[C@@H]1C)C3 [Example 97, {4-[(6-Methoxy-1H-indazol-5-yl)amino]-5,8-dihydropyrido[4′,3′:4,5]thieno[2,3-d]pyrimidin-7(6H)-yl}[(3S)-3-methylmorpholin-4-yl]methanone]	3 nM
COc1cc2[nH]ncc2cc1Nc1ncnc2sc3c(c12)CCN(Cc1ccn(C)n1)C3 [Example 98, N-(6-Methoxy-1H-indazol-5-yl)-7-[(1-methyl-1H-pyrazol-3-yl)methyl]-5,6,7,8-tetrahydropyrido[4′,3′:4,5]thieno[2,3-d]pyrimidin-4-amine]	11 nM
C[C@@H]1CN(C(=O)N2CCc3c(sc4ncnc(Nc5cnc6[nH]ncc6c5)c34)C2)C[C@H](C)O1 [Example 35, [(2R,6S)-2,6-Dimethylmorpholin-4-yl][4-(1H-pyrazolo[3,4-b]pyridin-5-ylamino)-5,8-dihydropyrido[4′,3′:4,5]thieno[2,3-d]pyrimidin-7(6H)-yl]methanone]	27 nM
CSc1cc2[nH]ncc2cc1Nc1ncnc2sc3c(c12)CCN(C(=O)N1CCOCC1)C3 [Example 47, [4-{[6-(Methylsulfanyl)-1H-indazol-5-yl]amino}-5,8-dihydropyrido[4′,3′:4,5]thieno[2,3-d]pyrimidin-7(6H)-yl](morpholin-4-yl)methanone]	61 nM
COc1nc2[nH]ncc2cc1Nc1ncnc2sc3c(c12)CCN(S(C)(=O)=O)C3 [Example 50, N-(6-Methoxy-1H-pyrazolo[3,4-b]pyridin-5-yl)-7-(methylsulfonyl)-5,6,7,8-tetrahydropyrido[4′,3′:4,5]thieno[2,3-d]pyrimidin-4-amine]	40 nM
CSc1cc2[nH]ncc2cc1Nc1ncnc2sc3c(c12)CCN(C(=O)N(C)C)C3 [Example 46, N,N-Dimethyl-4-{[6-(methylsulfanyl)-1H-indazol-5-yl]amino}-5,8-dihydropyrido[4′,3′:4,5]thieno[2,3-d]pyrimidine-7(6H)-carboxamide]	87 nM
COc1cc2[nH]ncc2cc1Nc1ncnc2sc3c(c12)CCNC3 [Example 8, N-(6-Methoxy-1H-indazol-5-yl)-5,6,7,8-tetrahydropyrido[4′,3′:4,5]thieno[2,3-d]pyrimidin-4-amine]	13 nM
COc1cc2[nH]ncc2cc1Nc1ncnc2sc3c(c12)CCN(C(=O)N(C)CCC(F)(F)F)C3 [Example 99, 4-[(6-Methoxy-1H-indazol-5-yl)amino]-N-methyl-N-(3,3,3-trifluoropropyl)-5,8-dihydropyrido[4′,3′:4,5]thieno[2,3-d]pyrimidine-7(6H)-carboxamide]	2 nM
COc1cc2[nH]ncc2cc1Nc1ncnc2sc3c(c12)CCN(C(=O)N1CCOCC1)C3 [Example 42, {4-[(6-Methoxy-1H-indazol-5-yl)amino]-5,8-dihydropyrido[4′,3′:4,5]thieno[2,3-d]pyrimidin-7(6H)-yl}(morpholin-4-yl)methanone]	22 nM
COc1nc2[nH]ncc2cc1Nc1ncnc2sc3c(c12)CCN(C(=O)N(C)C)C3 [Example 65, 4-[(6-Methoxy-1H-pyrazolo[3,4-b]pyridin-5-yl)amino]-N,N-dimethyl-5,8-dihydropyrido[4′,3′:4,5]thieno[2,3-d]pyrimidine-7(6H)-carboxamide]	5 nM
CSc1cc2[nH]ncc2cc1Nc1ncnc2sc3c(c12)CCN(S(C)(=O)=O)C3 [Example 48, N-[6-(Methylsulfanyl)-1H-indazol-5-yl]-7-(methylsulfonyl)-5,6,7,8-tetrahydropyrido[4′,3′:4,5]thieno[2,3-d]pyrimidin-4-amine]	27 nM
